Assay results taken from ChEMBL document CHEMBL4665624, “Synthesis of 5-(4-(1H-phenanthro[9,10-d]imidazol-2-yl)benzylidene)thiazolidine-2,4-dione as promising DNA and serum albumin-binding agents and evaluation of antitumor activity” (Eur J Med Chem, 2019).
The source made the active and inactive calls. The rule behind the calls is not given here.

Tests used:
SN12C = experiment: Antitumor activity against human SN12C cells assessed as cell growth inhibition at 10 uM incubated for 48 hrs by sulforhodamine B assay; format: functional; details: read-out: GI
NCI-H23 = experiment: Antitumor activity against human NCI-H23 cells assessed as cell growth inhibition at 10 uM incubated for 48 hrs by sulforhodamine B assay; format: functional; details: read-out: GI
UACC-62 = experiment: Antitumor activity against human UACC-62 cells assessed as cell growth inhibition at 10 uM incubated for 48 hrs by sulforhodamine B assay; format: functional; details: read-out: GI
Hs-578T = experiment: Cytotoxicity against human HS 578T cells assessed as cell death at 10 uM incubated for 48 hrs by sulforhodamine B assay; format: functional, cell-based
OVCAR-3 = experiment: Antitumor activity against human OVCAR-3 cells assessed as cell growth inhibition at 10 uM incubated for 48 hrs by sulforhodamine B assay; format: functional; details: read-out: GI
K562 = experiment: Antitumor activity against human K562 cells assessed as cell growth inhibition at 10 uM incubated for 48 hrs by sulforhodamine B assay; format: functional; details: read-out: GI
MOLT-4 = experiment: Antitumor activity against human MOLT4 cells assessed as cell growth inhibition at 10 uM incubated for 48 hrs by sulforhodamine B assay; format: functional; details: read-out: GI
SF-295 = experiment: Antitumor activity against human SF295 cells assessed as cell growth inhibition at 10 uM incubated for 48 hrs by sulforhodamine B assay; format: functional; details: read-out: GI
SF-268 = experiment: Antitumor activity against human SF268 cells assessed as cell growth inhibition at 10 uM incubated for 48 hrs by sulforhodamine B assay; format: functional; details: read-out: GI
ACHN = experiment: Antitumor activity against human ACHN cells assessed as cell growth inhibition at 10 uM incubated for 48 hrs by sulforhodamine B assay; format: functional; details: read-out: GI
KM12 = experiment: Antitumor activity against human KM12 cells assessed as cell growth inhibition at 10 uM incubated for 48 hrs by sulforhodamine B assay; format: functional; details: read-out: GI
HCT-15 = experiment: Antitumor activity against human HCT15 cells assessed as cell growth inhibition at 10 uM incubated for 48 hrs by sulforhodamine B assay; format: functional; details: read-out: GI
CCRF-CEM = experiment: Antitumor activity against human CCRF-CEM cells assessed as cell growth inhibition at 10 uM incubated for 48 hrs by sulforhodamine B assay; format: functional; details: read-out: GI
MDA-MB-231 = experiment: Antitumor activity against human MDA-MB-231/ATCC cells assessed as cell growth inhibition at 10 uM incubated for 48 hrs by sulforhodamine B assay; format: functional; details: read-out: GI
IGROV-1 = experiment: Antitumor activity against human IGROV1 cells assessed as cell growth inhibition at 10 uM incubated for 48 hrs by sulforhodamine B assay; format: functional; details: read-out: GI
HOP-92 = experiment: Antitumor activity against human HOP92 cells assessed as cell growth inhibition at 10 uM incubated for 48 hrs by sulforhodamine B assay; format: functional; details: read-out: GI
HCC 2998 = experiment: Cytotoxicity against human HCC2998 cells assessed as cell death at 10 uM incubated for 48 hrs by sulforhodamine B assay; format: functional, cell-based
HCT-116 = experiment: Antitumor activity against human HCT116 cells assessed as cell growth inhibition at 10 uM incubated for 48 hrs by sulforhodamine B assay; format: functional; details: read-out: GI
SR = experiment: Antitumor activity against human SR cells assessed as cell growth inhibition at 10 uM incubated for 48 hrs by sulforhodamine B assay; format: functional; details: read-out: GI
UO-31 = experiment: Antitumor activity against human UO-31 cells assessed as cell growth inhibition at 10 uM incubated for 48 hrs by sulforhodamine B assay; format: functional; details: read-out: GI
MCF7 = experiment: Antitumor activity against human MCF7 cells assessed as cell growth inhibition at 10 uM incubated for 48 hrs by sulforhodamine B assay; format: functional; details: read-out: GI
U-251 = experiment: Antitumor activity against human U251 cells assessed as cell growth inhibition at 10 uM incubated for 48 hrs by sulforhodamine B assay; format: functional; details: read-out: GI
Malme-3M = experiment: Antitumor activity against human MALME-3M cells assessed as cell growth inhibition at 10 uM incubated for 48 hrs by sulforhodamine B assay; format: functional; details: read-out: GI
OVCAR-4 = experiment: Antitumor activity against human OVCAR-4 cells assessed as cell growth inhibition at 10 uM incubated for 48 hrs by sulforhodamine B assay; format: functional; details: read-out: GI
SNB-75 = experiment: Antitumor activity against human SNB-75 cells assessed as cell growth inhibition at 10 uM incubated for 48 hrs by sulforhodamine B assay; format: functional; details: read-out: GI
RPMI-8226 = experiment: Antitumor activity against human RPMI8226 cells assessed as cell growth inhibition at 10 uM incubated for 48 hrs by sulforhodamine B assay; format: functional; details: read-out: GI
LOX IMVI = experiment: Antitumor activity against human LOX IMVI cells assessed as cell growth inhibition at 10 uM incubated for 48 hrs by sulforhodamine B assay; format: functional; details: read-out: GI
NCI/ADR-RES = experiment: Antitumor activity against human NCI/ADR-RES cells assessed as cell growth inhibition at 10 uM incubated for 48 hrs by sulforhodamine B assay; format: functional; details: read-out: GI
SW-620 = experiment: Antitumor activity against human SW620 cells assessed as cell growth inhibition at 10 uM incubated for 48 hrs by sulforhodamine B assay; details: SW-620, 48 h, read-out: GI
SK-MEL-28 = experiment: Antitumor activity against human SK-MEL-28 cells assessed as cell growth inhibition at 10 uM incubated for 48 hrs by sulforhodamine B assay; format: functional; details: read-out: GI
SK-OV-3 = experiment: Antitumor activity against human SK-OV-3 cells assessed as cell growth inhibition at 10 uM incubated for 48 hrs by sulforhodamine B assay; format: functional; details: read-out: GI
HL-60(TB) = experiment: Antitumor activity against human HL-60(TB) cells assessed as cell growth inhibition at 10 uM incubated for 48 hrs by sulforhodamine B assay; format: functional; details: read-out: GI
A498 = experiment: Cytotoxicity against human A498 cells assessed as cell death at 10 uM incubated for 48 hrs by sulforhodamine B assay; format: functional, cell-based
NCI-H226 = experiment: Antitumor activity against human NCI-H226 assessed as cell growth inhibition at 10 uM incubated for 48 hrs by sulforhodamine B assay; format: functional; details: read-out: GI
PC-3 = experiment: Antitumor activity against human PC-3 cells assessed as cell growth inhibition at 10 uM incubated for 48 hrs by sulforhodamine B assay; format: functional; details: read-out: GI
BT-549 = experiment: Antitumor activity against human BT-549 cells assessed as cell growth inhibition at 10 uM incubated for 48 hrs by sulforhodamine B assay; format: functional; details: read-out: GI
NCI-H522 = experiment: Antitumor activity against human NCI-H522 cells assessed as cell growth inhibition at 10 uM incubated for 48 hrs by sulforhodamine B assay; format: functional; details: read-out: GI

O=c1[nH]cc(F)c(=O)[nH]1 [FLUOROURACIL]
inhibition of growth at 10 µM (SN12C): 54% | inhibition of growth at 10 µM (NCI-H23): 39% | inhibition of growth at 10 µM (UACC-62): 39.7% | Activity (Hs-578T): Active | inhibition of growth at 10 µM (OVCAR-3): 47.4% | inhibition of growth at 10 µM (K562): 42.3% | inhibition of growth at 10 µM (MOLT-4): 43.1% | inhibition of growth at 10 µM (SF-295): 69% | inhibition of growth at 10 µM (SF-268): 59% | inhibition of growth at 10 µM (ACHN): 39.3% | inhibition of growth at 10 µM (KM12): 40.7% | inhibition of growth at 10 µM (HCT-15): 26.5% | inhibition of growth at 10 µM (CCRF-CEM): 57.1% | inhibition of growth at 10 µM (MDA-MB-231): 78.1% | inhibition of growth at 10 µM (IGROV-1): 51.2% | inhibition of growth at 10 µM (HOP-92): 50.6% | Activity (HCC 2998): Active | inhibition of growth at 10 µM (HCT-116): 17.8% | inhibition of growth at 10 µM (SR): 24.8% | inhibition of growth at 10 µM (UO-31): 41.3% | inhibition of growth at 10 µM (MCF7): 11.5% | inhibition of growth at 10 µM (U-251): 50.3% | inhibition of growth at 10 µM (Malme-3M): 58.2% | inhibition of growth at 10 µM (OVCAR-4): 59.4% | inhibition of growth at 10 µM (SNB-75): 65.9% | inhibition of growth at 10 µM (RPMI-8226): 41.4% | inhibition of growth at 10 µM (LOX IMVI): 30.4% | inhibition of growth at 10 µM (NCI/ADR-RES): 47.6% | inhibition of growth at 10 µM (SW-620): < 10% | inhibition of growth at 10 µM (SK-MEL-28): 19.5% | inhibition of growth at 10 µM (SK-OV-3): 77.5% | inhibition of growth at 10 µM (HL-60(TB)): 47.9% | Activity (A498): Active | inhibition of growth at 10 µM (NCI-H226): 69.5% | inhibition of growth at 10 µM (PC-3): 58.2% | inhibition of growth at 10 µM (BT-549): 37.8% | inhibition of growth at 10 µM (NCI-H522): 58%
